The source made the active and inactive calls. No cut-off for these calls is given here. Where only a bound is given, the exact number is not on record here.

The term IC50 denotes the concentration that inhibits the measured activity by half. A word on the Ki: it is a dissociation constant, usually derived from enzyme kinetics or from competition with a known ligand. What is called Papp is a coefficient for how fast a substance crosses the barrier.

For series [1], the system named is SH-SY5Y. Briefly: Neuroprotective activity against rotenone/oligomycin A-induced mitochondrial oxidative stress in human SH-SY5Y cells at 10 nM after 24 hrs by MTT assay relative to control. It is filed as functional. (Formazan colour is commonly taken as a measure of viable cells.)
In series [2] the target is T1, Acetylcholinesterase (Homo sapiens, UniProt P22303). Briefly: Inhibition of recombinant human AChE expressed in HEK293 cells using acetylthiocholine iodide as substrate pretreated for 5 mins followed by substrate addition and measured for 5 mins by Ellman's method. For orientation: Ellman's reagent forms a yellow product with free thiols.
In series [3] the target is Cholinesterase (Homo sapiens, UniProt P06276). The series can be described thus: Inhibition of human serum BuChE using butyrylthiocholine as substrate pretreated for 5 mins followed by substrate addition and measured for 5 mins by Ellman's method.
Series [4] is filed under the species Homo sapiens. The series can be described thus: Selectivity index, ratio of IC50 for human serum BuChE to IC50 for recombinant human AChE expressed in HEK293 cells. The format is cell-based.
The target in series [5] is T1, Acetylcholinesterase. Briefly: Inhibition of recombinant human AChE expressed in HEK293 cells using varying levels of acetylthiocholine iodide as substrate by Lineweaver-burk plot analysis.
The target in series [6] is T2, Polyunsaturated fatty acid 5-lipoxygenase (Homo sapiens, UniProt P09917).
T2 sequence (P09917 whole entry): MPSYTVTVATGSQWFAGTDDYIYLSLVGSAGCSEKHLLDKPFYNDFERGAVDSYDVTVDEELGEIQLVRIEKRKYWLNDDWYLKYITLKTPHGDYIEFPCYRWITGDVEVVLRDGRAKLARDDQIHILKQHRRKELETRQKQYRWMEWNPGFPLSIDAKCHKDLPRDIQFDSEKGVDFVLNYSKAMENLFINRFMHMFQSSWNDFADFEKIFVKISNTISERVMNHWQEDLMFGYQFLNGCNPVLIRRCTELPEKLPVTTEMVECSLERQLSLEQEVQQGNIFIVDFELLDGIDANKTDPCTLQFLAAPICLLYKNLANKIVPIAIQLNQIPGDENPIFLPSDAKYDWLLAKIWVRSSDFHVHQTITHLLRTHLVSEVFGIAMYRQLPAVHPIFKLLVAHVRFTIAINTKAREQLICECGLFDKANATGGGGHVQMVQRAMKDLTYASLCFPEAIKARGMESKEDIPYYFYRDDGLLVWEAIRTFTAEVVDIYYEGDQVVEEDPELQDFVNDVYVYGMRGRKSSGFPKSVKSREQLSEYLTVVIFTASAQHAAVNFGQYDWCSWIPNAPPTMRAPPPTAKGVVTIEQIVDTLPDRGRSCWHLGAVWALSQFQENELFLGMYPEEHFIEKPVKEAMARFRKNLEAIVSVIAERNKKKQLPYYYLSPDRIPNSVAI
The series can be described thus: Inhibition of human 5-lipoxygenase using arachidonic acid as substrate pretreated for 10 mins followed by substrate and ATP addition and measured after 20 mins by H2DCFDA probe based fluorescence assay.

The target in series [7] is T3, Amine oxidase [flavin-containing] A (Homo sapiens, UniProt P21397).
T3 sequence (P21397 whole entry): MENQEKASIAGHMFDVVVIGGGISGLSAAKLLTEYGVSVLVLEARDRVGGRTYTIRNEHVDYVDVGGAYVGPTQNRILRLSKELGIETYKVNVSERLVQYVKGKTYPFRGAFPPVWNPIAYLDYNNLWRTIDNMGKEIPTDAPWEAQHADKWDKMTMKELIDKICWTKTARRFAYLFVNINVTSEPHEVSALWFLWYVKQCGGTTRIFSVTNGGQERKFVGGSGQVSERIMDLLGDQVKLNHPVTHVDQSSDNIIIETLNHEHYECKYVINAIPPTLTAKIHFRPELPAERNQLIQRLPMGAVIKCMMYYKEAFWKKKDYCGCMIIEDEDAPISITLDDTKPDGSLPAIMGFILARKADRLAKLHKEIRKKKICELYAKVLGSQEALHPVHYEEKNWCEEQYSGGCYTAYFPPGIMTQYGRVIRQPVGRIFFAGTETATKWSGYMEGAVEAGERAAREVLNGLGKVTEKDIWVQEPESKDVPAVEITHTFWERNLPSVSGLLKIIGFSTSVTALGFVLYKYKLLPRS
The series can be described thus: Inhibition of recombinant human MAO-A expressed in baculovirus infected BTI insect cells using p-tyramine as substrate pretreated for 15 mins followed by substrate addition by horse-radish peroxidase/amplex red-based fluorescence method.

Series [8] addresses T4, Amine oxidase [flavin-containing] B (Homo sapiens, UniProt P27338).
T4 sequence (P27338 whole entry): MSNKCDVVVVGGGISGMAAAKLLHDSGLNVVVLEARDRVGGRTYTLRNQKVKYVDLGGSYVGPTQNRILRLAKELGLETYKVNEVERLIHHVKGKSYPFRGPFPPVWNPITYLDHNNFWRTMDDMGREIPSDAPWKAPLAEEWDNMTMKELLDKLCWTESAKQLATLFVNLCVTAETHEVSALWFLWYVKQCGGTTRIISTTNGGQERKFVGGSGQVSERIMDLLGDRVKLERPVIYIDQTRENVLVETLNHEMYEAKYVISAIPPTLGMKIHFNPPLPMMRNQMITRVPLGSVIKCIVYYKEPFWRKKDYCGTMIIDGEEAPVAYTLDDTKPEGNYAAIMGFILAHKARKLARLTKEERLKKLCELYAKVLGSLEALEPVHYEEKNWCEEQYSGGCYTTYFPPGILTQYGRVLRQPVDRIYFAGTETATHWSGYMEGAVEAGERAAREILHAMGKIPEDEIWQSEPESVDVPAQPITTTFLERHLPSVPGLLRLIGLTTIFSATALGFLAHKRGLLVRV
The series can be described thus: biochemical. The format is cell-based.
Description: Inhibition of recombinant human MAO-B expressed in baculovirus infected BTI insect cells using p-tyramine as substrate pretreated for 15 mins followed by substrate addition by horse-radish peroxidase/amplex red-based fluorescence method

Series [9] is described as follows: Antioxidant activity assessed as trolox equivalent of AAPH-induced radical scavenging activity at 10 uM pretreated for 15 mins followed by APPH challenge measured every minute for 80 mins by ORAC-FL assay. It is filed as functional.
Series [10] addresses Sigma non-opioid intracellular receptor 1 (Cavia porcellus, UniProt Q60492). Briefly: Displacement of (+)-[3H]pentazocine from guinea pig brain membrane sigma1 receptor by liquid scintillation counting method.
The target of series [11] is T5, Sigma intracellular receptor 2 (Rattus norvegicus, UniProt Q5U3Y7).
T5 sequence (Q5U3Y7 whole entry): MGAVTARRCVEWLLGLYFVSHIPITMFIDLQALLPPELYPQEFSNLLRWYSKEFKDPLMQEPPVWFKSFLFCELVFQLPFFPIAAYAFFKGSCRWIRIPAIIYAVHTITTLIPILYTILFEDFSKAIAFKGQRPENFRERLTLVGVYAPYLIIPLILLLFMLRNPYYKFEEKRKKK
The series can be described thus: Displacement of [3H]DTG from sigma2 receptor in rat liver membranes by liquid scintillation counting method. The format is cell membranes, Membrane. Background: Displacement assays read how much labelled ligand stays bound in the presence of the test substance.

The nature of series [12]: Selectivity ratio of Ki for displacement of [3H]DTG from sigma2 receptor in rat liver membranes to Ki for displacement of (+)-[3H]pentazocine from guinea pig brain membrane sigma1 receptor. It is filed as cell membranes.
Series [13] has as its system SH-SY5Y. Briefly: Neuroprotective activity against rotenone/oligomycin A-induced mitochondrial oxidative stress in human SH-SY5Y cells at 0.1 uM after 24 hrs by MTT assay relative to control. The format is functional.
The test system of series [14] is SH-SY5Y. Briefly: Neuroprotective activity against rotenone/oligomycin A-induced mitochondrial oxidative stress in human SH-SY5Y cells at 0.3 uM after 24 hrs by MTT assay relative to control. It is filed as functional.
The subject of series [15] is SH-SY5Y. Briefly: Neuroprotective activity against rotenone/oligomycin A-induced mitochondrial oxidative stress in human SH-SY5Y cells at 1 uM after 24 hrs by MTT assay relative to control. It is filed as functional.
Series [16] deals with SH-SY5Y. Briefly: Neuroprotective activity against rotenone/oligomycin A-induced mitochondrial oxidative stress in human SH-SY5Y cells at 3 uM after 24 hrs by MTT assay relative to control. It is filed as functional.
The species named for series [17] is Mus musculus. Briefly: Neurogenic activity in C57BL/6 mouse subgranular zone neural stem cell-derived neurospheres assessed as differentiation of neural stem cells at 10 uM treated for 7 days followed by poly-L-lysine addition and measured after 3 days by DAPI staining based confocal microscopic analysis. It is filed as functional.
Series [18] is filed under the species Mus musculus. The series can be described thus: Neurogenic activity in C57BL/6 mouse subgranular zone neural stem cell-derived neurospheres assessed as neuronal maturation at 10 uM treated for 7 days followed by poly-L-lysine addition and measured after 3 days by DAPI staining based confocal microscopic analysis. The format is functional.
Series [19] is described as follows: in vitro. The settings on record: PAMPA, pH 7.4.
Description: Permeability of the compound in pH 7.4 PBS by PAMPA-BBB assay
Series [20] is filed under the species Homo sapiens. The series can be described thus: Selectivity ratio of IC50 for recombinant human MAO-A expressed in baculovirus infected BTI insect cells to IC50 for recombinant human MAO-B expressed in baculovirus infected BTI insect cells.
Series [21] in a line: Antioxidant activity assessed as trolox equivalent of AAPH-induced radical scavenging activity pretreated for 15 mins followed by APPH challenge measured every minute for 80 mins by ORAC-FL assay. It is filed as functional.

T1 sequence (P22303 whole entry): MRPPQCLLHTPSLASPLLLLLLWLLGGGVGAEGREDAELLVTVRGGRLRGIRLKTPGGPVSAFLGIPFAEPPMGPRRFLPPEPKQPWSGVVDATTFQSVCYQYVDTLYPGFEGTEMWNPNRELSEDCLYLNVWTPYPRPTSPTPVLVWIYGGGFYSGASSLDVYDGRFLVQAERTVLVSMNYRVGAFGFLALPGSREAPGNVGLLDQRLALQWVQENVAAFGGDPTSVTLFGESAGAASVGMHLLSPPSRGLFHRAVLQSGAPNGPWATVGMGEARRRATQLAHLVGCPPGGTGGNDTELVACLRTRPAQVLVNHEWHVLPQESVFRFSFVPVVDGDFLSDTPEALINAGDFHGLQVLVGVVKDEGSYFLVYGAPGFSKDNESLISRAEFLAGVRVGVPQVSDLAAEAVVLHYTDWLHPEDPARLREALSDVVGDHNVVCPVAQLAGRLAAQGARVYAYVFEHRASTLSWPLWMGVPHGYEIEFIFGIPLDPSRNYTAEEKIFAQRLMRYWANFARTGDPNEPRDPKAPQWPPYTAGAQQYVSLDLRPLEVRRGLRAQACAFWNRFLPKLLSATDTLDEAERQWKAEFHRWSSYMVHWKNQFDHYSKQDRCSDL
Sequence of Cholinesterase (P06276 whole entry): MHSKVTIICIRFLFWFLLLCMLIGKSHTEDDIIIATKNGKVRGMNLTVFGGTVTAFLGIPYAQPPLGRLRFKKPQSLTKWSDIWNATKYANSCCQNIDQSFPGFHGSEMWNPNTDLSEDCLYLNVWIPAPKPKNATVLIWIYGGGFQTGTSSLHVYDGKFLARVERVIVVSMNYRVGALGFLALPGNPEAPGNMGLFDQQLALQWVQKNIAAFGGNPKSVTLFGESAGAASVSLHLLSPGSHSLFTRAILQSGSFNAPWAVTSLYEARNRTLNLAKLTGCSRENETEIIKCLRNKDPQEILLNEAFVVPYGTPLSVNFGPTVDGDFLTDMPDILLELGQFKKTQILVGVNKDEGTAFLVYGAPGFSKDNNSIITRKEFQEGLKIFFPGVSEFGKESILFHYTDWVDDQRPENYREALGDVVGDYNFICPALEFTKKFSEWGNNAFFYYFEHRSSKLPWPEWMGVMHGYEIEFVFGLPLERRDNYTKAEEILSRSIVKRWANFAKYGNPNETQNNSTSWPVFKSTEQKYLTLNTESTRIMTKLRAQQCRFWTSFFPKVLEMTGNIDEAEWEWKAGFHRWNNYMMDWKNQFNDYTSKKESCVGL
Sequence of Sigma non-opioid intracellular receptor 1 (Q60492 whole entry): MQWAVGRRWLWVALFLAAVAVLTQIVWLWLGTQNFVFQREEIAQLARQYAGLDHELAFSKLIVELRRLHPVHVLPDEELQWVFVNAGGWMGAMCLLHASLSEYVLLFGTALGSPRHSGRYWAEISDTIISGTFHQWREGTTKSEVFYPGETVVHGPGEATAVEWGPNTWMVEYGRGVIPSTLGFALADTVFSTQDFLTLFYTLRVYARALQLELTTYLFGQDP

For `COc1ccc2[nH]cc(CCNC(C)=O)c2c1` [MELATONIN], the Activity in series [1] is listed as 42.1%.
`COc1cc2oc(C(=O)NCCC3CCN(Cc4ccccc4)CC3)cc(=O)c2cc1OC`: the IC50 is 46 nM in [2]; over 10 µM in [3]; 74.3 µM in series [6]; 15.3 µM in [7]; 5.2 µM in series [8]. In addition, in [4], the Ratio IC50 is over 217. Also, the results for the Ki in series [5], in [10] and in [11] were 39 nM, 37.4 nM and 239 nM, respectively. Further, the outcome in [9] was inactive. Besides, the Ratio Ki in [12] was 6. Also, the Activity is recorded as 11.5% in series [13], 18.1% in series [14], 17.1% in series [15] and 22.4% in [16]. In addition, the result in [17] and in [18] was Active. Further, the Papp in series [19] was determined as 5.9 ×10⁻⁶ cm/s.
In the case of `O=C(NCCC1CCN(Cc2ccccc2)CC1)c1cc(=O)c2cccc(O)c2[nH]1`, the IC50 is 1150 nM in series [2]; over 10 µM in series [3]; 77.6 µM in series [6]; over 100 µM in [7]; 13.6 µM in series [8]. Also, the figures for the Ratio IC50 in series [4] and in series [20] were over 8.7 and 7, respectively. Further, in [21], the Activity (umolequiv/umol) worked out at 1. Further, the Ki in [10] came out at 47.4 nM; in [11], 290 nM. In [12], the Ratio Ki is 6. This compound registered a Papp in series [19] of 4.9 ×10⁻⁶ cm/s.
